Data taken from ChEMBL document CHEMBL1201862, “PubChem BioAssay data set” (2004).
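Compound exposure: 48 hours, 5 concentrations, 96-well plates. Here, GI50 denotes the concentration required for 50% inhibition of growth.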 Calls of active or inactive are those of the source. Rule as the data show it: active = GI50 up to about 1.1 µM and inactive = higher.

Columns and labels:
Assay in all cases: inhibition of tumour cell growth, NCI panel, 48 h
A549 = test system: A549
ACHN = test system: ACHN
BT-549 = test system: BT-549
CAKI-1 = test system: CAKI-1
COLO 205 = test system: COLO 205
DU-145 = test system: DU-145
HCT-15 = test system: HCT-15
K562 = test system: K562
LOX IMVI = test system: LOX IMVI
Malme-3M = test system: Malme-3M
NCI-H460 = test system: NCI-H460
NCI/ADR-RES = test system: NCI/ADR-RES
OVCAR-4 = test system: OVCAR-4
SF-268 = test system: SF-268
SF-295 = test system: SF-295
SF-539 = test system: SF-539
SN12C = test system: SN12C
SNB-19 = test system: SNB-19
UACC-257 = test system: UACC-257
UACC-62 = test system: UACC-62

Row | SMILES | GI50 (A549) | GI50 (ACHN) | GI50 (BT-549) | GI50 (CAKI-1) | GI50 (COLO 205) | GI50 (DU-145) | GI50 (HCT-15) | GI50 (K562) | GI50 (LOX IMVI) | GI50 (Malme-3M) | GI50 (NCI-H460) | GI50 (NCI/ADR-RES) | GI50 (OVCAR-4) | GI50 (SF-268) | GI50 (SF-295) | GI50 (SF-539) | GI50 (SN12C) | GI50 (SNB-19) | GI50 (UACC-257) | GI50 (UACC-62)
1 | O=C1c2c(Br)sc(Br)c2[C@H]2OC(=S)N[C@@H]12 | 17.1 µM (inactive) | 4.45 µM (inactive) | 10 µM (inactive) | 3.25 µM (inactive) | 2.51 µM (inactive) | 12.8 µM (inactive) | 1.88 µM | 2.29 µM (inactive) | 3.02 µM (inactive) | 3.73 µM (inactive) | 16.6 µM (inactive) | 8.51 µM (inactive) | 6.07 µM (inactive) | 3.27 µM (inactive) | 15.2 µM (inactive) | 16.6 µM (inactive) | 3.21 µM (inactive) | 15.2 µM (inactive) | 7.08 µM (inactive) | 11.8 µM (inactive)
2 | CC(C)C1OC23CCCCC2C(C#N)(C#N)C1(C#N)C(=N)O3 (centres undefined) | 71.8 µM (inactive) | 33.1 µM (inactive) | 18.8 µM (inactive) | 8.34 µM (inactive) | 14.6 µM (inactive) | 26.3 µM (inactive) | 9.46 µM | 8.61 µM (inactive) | 20.1 µM (inactive) | 16.8 µM (inactive) | 4.73 µM (inactive) | 34.8 µM (inactive) | – | 19.2 µM (inactive) | 49.9 µM (inactive) | 18 µM (inactive) | 15.2 µM (inactive) | 34.3 µM (inactive) | 20.6 µM (inactive) | 20.6 µM (inactive)
3 | CN(C)CCNC(=O)c1ccc(NCCCN(C)CCCNc2ccc(C(=O)NCCN(C)C)c3nc4ccc([N+](=O)[O-])cc4c(O)c23)c2c(O)c3cc([N+](=O)[O-])ccc3nc12 | < 0.01 µM (active) | < 0.0121 µM (active) | 0.447 µM (active) | 0.757 µM (active) | < 0.0133 µM (active) | < 0.0272 µM (active) | 0.368 µM | 0.0135 µM (active) | < 0.01 µM (active) | 0.126 µM (active) | < 0.01 µM (active) | 1.23 µM (inactive) | 0.127 µM (active) | 0.065 µM (active) | 0.0495 µM (active) | 0.0186 µM (active) | < 0.01 µM (active) | < 0.0146 µM (active) | 0.385 µM (active) | 0.0538 µM (active)
4 | OC1(c2ccc(Cl)cc2)c2ccc(CN3CCCC3)cc2C2=NCCN21 (centres undefined) | 17.1 µM (inactive) | 16.7 µM (inactive) | 8.77 µM (inactive) | 16.4 µM (inactive) | 10.8 µM (inactive) | 16 µM (inactive) | 17.3 µM | 16.1 µM (inactive) | 13.9 µM (inactive) | 11 µM (inactive) | 14.6 µM (inactive) | > 100 µM (inactive) | 12.3 µM (inactive) | 14.8 µM (inactive) | 14.6 µM (inactive) | 13.2 µM (inactive) | 16.4 µM (inactive) | 16.6 µM (inactive) | 12.5 µM (inactive) | 14.7 µM (inactive)
5 | COC(=O)[C@@H]1Cc2cc(O)c(O)cc2C2(CCN(C)CC2)O1 | > 10 µM (inactive) | > 10 µM (inactive) | > 10 µM (inactive) | > 10 µM (inactive) | > 10 µM (inactive) | > 10 µM (inactive) | > 10 µM | – | > 10 µM (inactive) | > 10 µM (inactive) | > 10 µM (inactive) | > 10 µM (inactive) | > 10 µM (inactive) | > 10 µM (inactive) | > 10 µM (inactive) | > 10 µM (inactive) | > 10 µM (inactive) | > 10 µM (inactive) | > 10 µM (inactive) | > 10 µM (inactive)
6 | Nc1ccc(S(=O)(=O)Nc2nc3ccccc3nc2N2CCCCC2)cc1 | 48.1 µM (inactive) | 98.6 µM (inactive) | 23.8 µM (inactive) | > 100 µM (inactive) | 64.9 µM (inactive) | > 100 µM (inactive) | 78.7 µM | > 100 µM (inactive) | > 100 µM (inactive) | 71.9 µM (inactive) | 79.3 µM (inactive) | 46.3 µM (inactive) | 24.2 µM (inactive) | > 100 µM (inactive) | 71.4 µM (inactive) | > 100 µM (inactive) | 82 µM (inactive) | > 100 µM (inactive) | > 100 µM (inactive) | > 100 µM (inactive)
7 | Cc1c(Cl)ccc2c1NC(=O)C2(O)CC(=O)c1ccc(Cl)cc1Cl (centres undefined) | > 50 µM (inactive) | 36.7 µM (inactive) | > 50 µM (inactive) | > 28.7 µM (inactive) | > 50 µM (inactive) | > 50 µM (inactive) | > 50 µM | 19.1 µM (inactive) | > 50 µM (inactive) | > 47.9 µM (inactive) | > 50 µM (inactive) | > 50 µM (inactive) | > 50 µM (inactive) | > 50 µM (inactive) | > 50 µM (inactive) | 17.7 µM (inactive) | > 50 µM (inactive) | > 50 µM (inactive) | > 50 µM (inactive) | > 50 µM (inactive)
8 | Clc1ccc(CCN[C@H]2CCCC[C@H]2N2CCCC2)cc1Cl | 26.4 µM (inactive) | 38.6 µM (inactive) | 26.2 µM (inactive) | 27.4 µM (inactive) | 13.6 µM (inactive) | 21.8 µM (inactive) | 9.59 µM | 24.2 µM (inactive) | 16 µM (inactive) | 15.9 µM (inactive) | 14.9 µM (inactive) | 21.4 µM (inactive) | 21.5 µM (inactive) | 32.2 µM (inactive) | 16 µM (inactive) | 28.4 µM (inactive) | 20.2 µM (inactive) | 25.9 µM (inactive) | 12 µM (inactive) | 17.8 µM (inactive)
9 | COC1(OC)CC(CO)(CNc2nc(N)nc(Cl)c2C=O)C1 | 59 µM (inactive) | 3.48 µM (inactive) | 48.5 µM (inactive) | 42.6 µM (inactive) | > 100 µM (inactive) | 95.9 µM (inactive) | 26 µM | 5.74 µM (inactive) | 18.5 µM (inactive) | 81.7 µM (inactive) | 85.7 µM (inactive) | 31 µM (inactive) | 25.2 µM (inactive) | 44.2 µM (inactive) | > 100 µM (inactive) | > 100 µM (inactive) | 28.4 µM (inactive) | 43.8 µM (inactive) | 27 µM (inactive) | –
10 | CN(C)CCC(C#N)(c1ccccc1)c1ccccc1 | > 100 µM (inactive) | > 100 µM (inactive) | > 100 µM (inactive) | > 100 µM (inactive) | 45.2 µM (inactive) | > 100 µM (inactive) | > 100 µM | 4.06 µM (inactive) | – | 35.1 µM (inactive) | > 100 µM (inactive) | 93.5 µM (inactive) | > 100 µM (inactive) | > 100 µM (inactive) | 90.6 µM (inactive) | > 100 µM (inactive) | 72.4 µM (inactive) | > 100 µM (inactive) | 24.4 µM (inactive) | 73.3 µM (inactive)
11 | CCOC(=O)[C@H](Cc1ccc(O)cc1)/N=C1/[C@H]2CCC[C@]1(O)[C@@](C)([N+](=O)[O-])C2 | > 100 µM (inactive) | > 100 µM (inactive) | > 100 µM (inactive) | > 100 µM (inactive) | > 100 µM (inactive) | > 100 µM (inactive) | > 100 µM | > 100 µM (inactive) | > 100 µM (inactive) | > 100 µM (inactive) | > 100 µM (inactive) | > 100 µM (inactive) | > 100 µM (inactive) | – | > 100 µM (inactive) | > 100 µM (inactive) | > 100 µM (inactive) | > 100 µM (inactive) | > 100 µM (inactive) | > 100 µM (inactive)
12 | N#Cc1nc(CCN2C(=O)c3ccccc3C2=O)oc1N | > 100 µM (inactive) | > 100 µM (inactive) | > 100 µM (inactive) | > 100 µM (inactive) | > 100 µM (inactive) | > 100 µM (inactive) | > 100 µM | > 100 µM (inactive) | > 100 µM (inactive) | > 100 µM (inactive) | > 100 µM (inactive) | > 100 µM (inactive) | > 100 µM (inactive) | > 100 µM (inactive) | > 100 µM (inactive) | > 100 µM (inactive) | > 100 µM (inactive) | > 100 µM (inactive) | > 100 µM (inactive) | –
13 | C=C(CCC=C(C)C)C1CC=C(C)CC1 (centres undefined) | 19.5 µM (inactive) | 17.8 µM (inactive) | 95.7 µM (inactive) | 19.7 µM (inactive) | 26.4 µM (inactive) | 23.2 µM (inactive) | 18.2 µM | – | 5.48 µM (inactive) | > 100 µM (inactive) | 19.3 µM (inactive) | 35.6 µM (inactive) | – | 28.8 µM (inactive) | 19.9 µM (inactive) | 25.9 µM (inactive) | 19.7 µM (inactive) | > 100 µM (inactive) | > 100 µM (inactive) | 36.9 µM (inactive)
14 | ClCCN(CCCl)c1ccc(CNCCCNCc2ccc(N(CCCl)CCCl)cc2)cc1 | 3.2 µM (inactive) | 0.521 µM (active) | 3.38 µM (inactive) | 6.64 µM (inactive) | 1.62 µM (inactive) | 2.37 µM (inactive) | 2.47 µM | 1.93 µM (inactive) | 1.65 µM (inactive) | 2.44 µM (inactive) | 0.402 µM (active) | 6.15 µM (inactive) | – | 1.43 µM (inactive) | – | 1.46 µM (inactive) | 1.63 µM (inactive) | 1.87 µM (inactive) | 2.29 µM (inactive) | 1.97 µM (inactive)
15 | Oc1nc2c(c(-c3ccc(Br)cc3)n1)COC/C2=C\c1ccc(Br)cc1 | – | > 50 µM (inactive) | > 50 µM (inactive) | > 50 µM (inactive) | > 50 µM (inactive) | > 50 µM (inactive) | > 50 µM | > 50 µM (inactive) | > 50 µM (inactive) | > 50 µM (inactive) | > 50 µM (inactive) | > 50 µM (inactive) | > 50 µM (inactive) | > 50 µM (inactive) | > 50 µM (inactive) | > 50 µM (inactive) | > 50 µM (inactive) | > 50 µM (inactive) | > 50 µM (inactive) | > 50 µM (inactive)
